Results: patent US20170319740A1, “Bioactive Wound Dressing and Teeth Coating Based on Morphogenetically Active Amorphous Calcium Polyphosphate” (NanotecMARIN GmbH, priority 2014, published 2017)

How the values were obtained:
[1] = tested on: MC3T3-E1 cells; test: XTT cell viability / cell proliferation assay; assay type: cell-based, mouse
Procedure: (§1) The mouse calvaria cells MC3T3-E1 cells (ATCC-CRL-2593; #99072810; Sigma) are cultivated in a-MEM (Gibco—Invitrogen, Darmstadt; Germany) containing 20% fetal calf serum (FCS; Gibco). In addition, the medium is supplemented with 2 mM L-glutamine, 1 mM Na-pyruvate and 50 μg/ml of gentamycin. […] After reaching 80% confluency, the cells are detached using trypsin/EDTA and then subcultured at a density of 5·10^3 cells/ml. The cells are seeded at a density of 5·10^3 cells/well. Medium/serum change is every 3 d.
(§2) Retinol is dissolved in ethanol (1 mg/ml) and then diluted in DMSO (dimethyl sulfoxide). Incubation is performed for 3 d.
Cell proliferation/cell viability can be determined by the colorimetric XTT method ([Na-3′[1-(phenylamino-carbonyl)-3,4-tetrazolium]-bis(4-methoxy-6-nitro) benzene sulfonic acid] using, for example, the “Cell Proliferation Kit II” (Roche). The absorbance is determined at […] and subtracted from the background values ([…]). In the experiments described in Examples, the viable cells have been determined after 72 h.

[2] = tested on: MC3T3-E1 cells; test: Nile Blue A staining of cell monolayers; assay type: cell-based, mouse; conditions: 72 h, controls stained in blue
Procedure: as §1, §2
The MC3T3-E1 cells are stained with Nile Blue A (Basic Blue 12, Nile blue sulfate; Sigma N0766) as described (Nakanishi T, Kato S. Impact of diabetes mellitus on myocardial lipid deposition: an autopsy study. Pathol Res Pract 2014; 210: 1018-1025). This staining reagent highlights in histological samples neutral lipids (triglycerides, cholesteryl esters, steroids) in pink, while acids (fatty acids, chromolipids, phospholipids) are stained in blue.

[3] = tested on: fatty acid binding protein 4 (FABP4); test: RT-qPCR steady-state gene expression in MC3T3-E1 cells: FABP4; assay type: cell-based, Mus musculus; conditions: 3 d, GAPDH reference
Procedure: (§3) As indicated, the following polyP preparations are added to the cells; […], et al. […] Retinol is dissolved in ethanol (1 mg/ml) and then diluted in DMSO (dimethyl sulfoxide). Incubation is performed for 3 d. In the indicated experiments, circular fiber mat samples (diameter of 15 mm) are inserted into each 24-well of the plates and seeded with MC3T3-E1 cells at a density of 5·10^3 cells/well. Then the assays are incubated for 3 d and subjected to microscopic as well as polymerase chain reaction analyses. The gene expression levels can be determined by applying the technique of reverse transcription-quantitative real-time polymerase chain reaction (RT-qPCR). […] Then the cells are harvested, their RNA is isolated and subjected to RT-qPCR. In the experiments described under Examples, the following primer pairs, matching with the respective mouse genes, are used: Fatty acid binding protein 4 (Mus musculus; accession number […]299] (SEQ ID NO: 1) and Rev: […]392] (SEQ ID NO: 2); product size 135 bp; leptin (M. musculus; […]2911] (SEQ ID NO: 3) and Rev: […]3019] (SEQ ID NO: 4); size 153 bp; and leptin receptor, transcript variant 2 (M. musculus; […]2592] (SEQ ID NO: 5) and Rev: […]2686] (SEQ ID NO: 6); size 139 bp. The GAPDH [glyceraldehyde 3-phosphate dehydrogenase (Mus GAPDH; NM_008084) is used as reference gene […]220] (SEQ ID NO: 7) and Rev: [NT]338 to nt316; size 139 bp] (SEQ ID NO: 8).

[4] = tested on: leptin; test: RT-qPCR steady-state gene expression in MC3T3-E1 cells: leptin; assay type: cell-based, Mus musculus; conditions: 3 d, GAPDH reference
Procedure: as §3

[5] = tested on: leptin receptor; test: RT-qPCR steady-state gene expression in MC3T3-E1 cells: leptin receptor; assay type: cell-based, Mus musculus; conditions: 3 d, GAPDH reference
Procedure: as §3

[6] = In vitro incubation of teeth, polyP coating / dentinal tubule resealing (light microscopy, SEM); parameters: species or system human; conditions: 10 mg/mL; 2 d incubation
Procedure: In order to determine the efficacy of the aCa-polyP-MP to reseal the dentin layer and to check for the potency of the microparticles to occlude the dentinal tubules human teeth are used. Prior to use the teeth are mechanically cleaned from soft tissue, treated for 5 h in 3% Na-hypochlorite to remove tissue remains and then stored at 4° C. in a 100% relative humidity chamber.
Teeth specimens are submersed in saline (0.90% [w/v] NaCl) which contained, as mentioned in the text, either 10 mg/mL of aCa-polyP-MP or Na-polyP, stoichiometrically complexed with Ca^2+ (molar ratio of 2:1/phosphate monomer:Ca^2 [Müller W E G, et al. (2011) Inorganic polymeric phosphate/polyphosphate as an inducer of alkaline phosphatase and a modulator of intracellular Ca^2+ level in osteoblasts (SaOS-2 cells) in vitro. Acta Biomater 7:2661-2671]). Incubation is performed at 25° C. Then the samples are sliced by cutting 1-2 mm thick discs inwards to the pulp as described (Wang X H, et al. (2014) Enzyme-based biosilica and biocalcite: biomaterials for the future in regenerative medicine. Trends Biotechnol 32:441-447); where indicated, the dentin or enamel regions, as well as the cement layer, are included in the measurements. […]

[7] = tested on: ALP gene; test: qRT-PCR of ALP expression in hMSC differentiating towards odontoblasts; assay type: cell-based, human; conditions: 30 μg/mL, time not stated (1-7 d series), without polyP approximately 0.02
Procedure: The human multipotent stromal cells (hMSC) differentiate into odontoblasts in the presence of conditioned medium from developing tooth germ cells; the conditioned medium is prepared as described (Huo N, et al. (2010) Differentiation of dermal multipotent cells into odontogenic lineage induced by embryonic and neonatal tooth germ cell-conditioned medium. Stem Cells Dev 19:93-104). The description of the cultivation procedure for the hMSCs has been published (Wang X H, et al. (2014) The marine sponge-derived inorganic polymers, biosilica and polyphosphate, as morphogenetically active matrices/scaffolds for differentiation of human multipotent stromal cells: Potential application in 3D printing and distraction osteogenesis. Marine Drugs 12:1131-1147). The human cells can be obtained, after approval from the responsible ethics committee, from bone marrow aspirations after informed consent of the donors. Incubation was performed in a humidified incubator at 37° C. and 5% CO2. The sixth passage is used for the studies. The cells are incubated in α-MEM (Biochrom), supplemented with 20% fetal calf serum (FCS; Gibco Invitrogen) as well as with 100 units/mL penicillin and […] streptomycin. In addition, 5% of conditioned medium is added to the assays. […]

Row | Compound | cell growth (XTT) ([1]; retinol 3 μM as single component, 72 h) | Nile Blue A staining colour of cells ([2]; 3 μM retinol) | FABP4 steady-state expression versus untreated control ([3]; 3 μM retinol) | leptin steady-state expression versus untreated control ([4]; 3 μM retinol) | leptin receptor steady-state expression versus untreated control ([5]; 3 μM retinol) | number of cells (XTT) ([1]; 72 h incubation, below a concentration of 3 μg/ml) | Nile Blue A staining colour of cells ([2]; 3 μg/ml) | FABP4 steady-state expression versus untreated control ([3]; 3 μg/ml, control set to 1) | leptin steady-state expression versus untreated control ([4]; 3 μg/ml, control set to 1) | leptin receptor steady-state expression versus untreated control ([5]; 3 μg/ml, control set to 1) | additional (polyP) layer on top of the cement, light microscopy [6] | surface texture / roughness of treated teeth, light microscopy [6] | ALP expression level, ratio to GAPDH [7]
1 | CC1=C(/C=C/C(C)=C/C=C/C(C)=C/CO)C(C)(C)CCC1 [retinol, all-trans retinol] | does not affect cell growth significantly | highlight in light/bright pink | non-significant increase | non-significant increase | non-significant increase | – | – | – | – | – | – | – | –
2 | Na-polyphosphate | – | – | – | – | – | no effect on the number of cells | highlight in light/bright pink | did not change significantly | did not change significantly | did not change significantly | no additional layer was observed | coarse texture | 0.53±0.01
